Laboratory results published in ChEMBL document CHEMBL1126392, “Semisynthesis and biological activity of taxol analogues: baccatin III 13-(N-benzoyl-(2R,3S)-3-(p-tolyl)isoserinate), baccatin III 13-(N-(p-toluoyl)-2R,3S)-3-phenylisoserinate), baccatin III 13-(N-benzoyl-(2R,3S)-3-(p-trifluoromethylphenyl)isoserinate), and baccatin III …” (1992).
The source made the active and inactive calls. No cut-off for these calls is given here.

Columns and labels:
[1] = (§1) Concentration which causes polymerization of 50 % of the tubulin present, in 15 min at 37 C, as a ratio in comparison wth taxol (taxol ED50 = 0.7 to 0.8 uM); assay type: functional
B16 [2] = assay: Compound was evaluated for the cytotoxicity against B16 melanoma cells after 40h incubation expressed as ratio relative to that of taxol; assay type: functional, Mus musculus
[3] = target: Tubulin alpha chain (Sus scrofa) (UniProt P02550); assay: as §1; assay type: functional
Sequence of Tubulin alpha chain (Sus scrofa) (P02550 whole entry, looked up): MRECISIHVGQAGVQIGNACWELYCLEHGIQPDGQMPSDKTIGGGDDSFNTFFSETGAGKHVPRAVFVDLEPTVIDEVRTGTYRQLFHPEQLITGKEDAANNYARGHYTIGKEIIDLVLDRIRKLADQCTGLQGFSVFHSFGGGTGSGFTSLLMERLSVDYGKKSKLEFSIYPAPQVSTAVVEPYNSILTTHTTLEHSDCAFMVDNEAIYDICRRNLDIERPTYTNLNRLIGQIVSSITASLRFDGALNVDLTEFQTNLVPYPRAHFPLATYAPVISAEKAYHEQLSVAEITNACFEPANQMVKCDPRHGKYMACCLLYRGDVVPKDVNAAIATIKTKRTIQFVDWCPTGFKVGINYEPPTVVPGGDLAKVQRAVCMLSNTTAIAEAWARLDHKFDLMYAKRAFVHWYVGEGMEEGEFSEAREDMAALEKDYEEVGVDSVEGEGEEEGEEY

B16 [4] = assay: Compound was evaluated for the cytotoxicity against B16 melanoma cells after 40h incubation expressed as ratio relative to that of taxol; NA - No cytotoxicity; assay type: functional, cell-based; settings: Mus musculus

Row | Structure (SMILES) | Ratio [3] | Ratio [1] | ED50 / ED50 (taxol) (B16 [2]) | ED50 / ED50 (taxol) (B16 [4])
1 | CC(=O)O[C@H]1C(=O)[C@@]2(C)[C@H]([C@H](OC(=O)c3ccccc3)[C@]3(O)C[C@H](OC(=O)[C@H](O)[C@@H](NC(=O)c4ccccc4)c4ccccc4)C(C)=C1C3(C)C)[C@]1(OC(C)=O)CO[C@@H]1C[C@@H]2O |  | 0.7 |  | 
2 | CC(=O)O[C@H]1C(=O)[C@@]2(C)[C@H]([C@H](OC(=O)c3ccccc3)[C@]3(O)C[C@H](OC(=O)[C@H](O)[C@@H](NC(=O)c4ccc(C)cc4)c4ccccc4)C(C)=C1C3(C)C)[C@]1(OC(C)=O)CO[C@@H]1C[C@@H]2O | 1.6 |  | 1.4 | 
3 | CC(=O)O[C@H]1C(=O)[C@@]2(C)[C@H]([C@H](OC(=O)c3ccccc3)[C@]3(O)C[C@H](OC(=O)[C@H](O)[C@@H](NC(=O)c4ccccc4)c4ccc(C)cc4)C(C)=C1C3(C)C)[C@]1(OC(C)=O)CO[C@@H]1C[C@@H]2O | 2.4 |  | 3 | 

Now from value to compound, other results behind:

Row | Ratio [3] | Structure (SMILES) | Ratio [1] | ED50 / ED50 (taxol) (B16 [2]) | ED50 / ED50 (taxol) (B16 [4])
4 | 6 | CC(=O)O[C@H]1C(=O)[C@@]2(C)[C@H]([C@H](OC(=O)c3ccccc3)[C@]3(O)C[C@H](OC(=O)[C@H](O)[C@@H](NC(=O)c4ccc(C(F)(F)F)cc4)c4ccccc4)C(C)=C1C3(C)C)[C@]1(OC(C)=O)CO[C@@H]1C[C@@H]2O |  | 17.7 | 
5 | inactive | CC(=O)O[C@H]1C(=O)[C@@]2(C)[C@H]([C@H](OC(=O)c3ccccc3)[C@]3(O)C[C@H](OC(=O)[C@H](O)[C@@H](NC(=O)c4ccccc4)c4ccc(C(F)(F)F)cc4)C(C)=C1C3(C)C)[C@]1(OC(C)=O)CO[C@@H]1C[C@@H]2O |  |  | inactive
